Source: patent US20030232797A1, “Novel derivatives of androstane and androstene with ascorbic acid and use thereof in treating or preventing various conditions, diseases, and disorders” (priority 2002, published 2003)
Where a name gives a salt, the structure may show the parent alone.

With `C[C@]12CC[C@H](OP(=O)(O)OC3=C(O)C(C(O)CO)OC3=O)CC1=CCC1C2CC[C@@]2(C)C1CC[C@@H]2OP(=O)(O)OC1=C(O)C(C(O)CO)OC1=O` (stereo partly drawn) [Diascorbyl diphosphate of androst-5ene-3β,17β-diol, tetrasodium salt] the Solubility in ethanol (ethanol) was “Slightly soluble” and the Solubility in water (water, 50 mg sample, 50 microliter portions every 10 minutes, ultrasonic bath) was 10.6 %, w/w.
